Laboratory results published in patent publication US12186283B2, “Bismuth-thiol compositions and methods of use” (Microbion Corporation, priority 2018, dated 2025).
Like-named read-outs stand apart in the source and are kept apart here. Marks after values point to notes of the source that are not given here.

Key:
Assay type in all cases: cell-based
Candida albicans = assay: Broth microdilution MIC, yeast (Example 13)
Candida glabrata = assay: Broth microdilution MIC, yeast (Example 13)
Candida krusei = assay: Broth microdilution MIC, yeast (Example 13)
Candida auris = assay: Broth microdilution MIC, yeast (Example 13)
Aspergillus spp. = assay: Broth microdilution MIC/MEC, mold (Example 13); settings: for MIC0 (complete inhibition): comparators, read time not given
[1] = Candida albicans ATCC 90028, Susceptible, 24 hr
[2] = Candida albicans ATCC 204276, MICA-R, 24 hr
[3] = Candida albicans ATCC MYA-2732, FLU-R, VORI-I, 24 hr
[4] = Candida albicans MMX 7053, Susceptible, 24 hr
[5] = Candida albicans MMX 7067, FLU-R, VORI-R, 24 hr
[6] = Candida albicans MMX 7403, Susceptible, 24 hr
[7] = Candida albicans MMX 7424, CASP-R, MICA-R, 24 hr
[8] = Candida albicans MMX 7430, Susceptible, 24 hr
[9] = Candida albicans MMX 7437, FLU-I, 24 hr
[10] = Candida glabrata ATCC 90030, Susceptible
[11] = Candida glabrata ATCC MYA-2950, Susceptible
[12] = Candida glabrata MMX 7087, Susceptible
[13] = Candida glabrata MMX 7093, FLU-R
[14] = Candida glabrata MMX 7101, FLU-R
[15] = Candida glabrata MMX 7103, CASP-R, MICA-R
[16] = Candida glabrata MMX 7111, Susceptible
[17] = Candida glabrata MMX 7285, CASP-R, MICA-R
[18] = Candida glabrata MMX 7307, CASP-R, MICA-R, FLU-R
[19] = Candida glabrata MMX 7549, Susceptible
[20] = C. krusei ATCC 14243, Susceptible
[21] = C. krusei ATCC 96685, Susceptible
[22] = C. krusei MMX 7125, Susceptible
[23] = C. krusei MMX 7128, Susceptible
[24] = C. krusei MMX 7141, Susceptible
[25] = C. krusei MMX 7155, Susceptible
[26] = C. krusei MMX 7563, Susceptible
[27] = C. krusei MMX 9878, MICA-I, VORI-I
[28] = C. auris MMX 9863, FLU-R, VORI-R
[29] = C. auris MMX 9864, FLU-R, VORI-R
[30] = C. auris MMX 9865, FLU-R, VORI-R
[31] = C. auris MMX 9866, FLU-R, VORI-R
[32] = C. auris MMX 9867, FLU-R, VORI-R
[33] = C. auris MMX 9868, FLU-R, VORI-R
[34] = C. auris MMX 9869, FLU-R, VORI-R
[35] = C. auris MMX 9870, FLU-R, VORI-R

CC[C@H](C)C[C@H](C)CCCCCCCCC(=O)N[C@H]1C[C@@H](O)[C@@H](NCCN)NC(=O)[C@@H]2[C@@H](O)CCN2C(=O)[C@H]([C@H](O)CCN)NC(=O)[C@H]([C@H](O)[C@@H](O)c2ccc(O)cc2)NC(=O)[C@@H]2C[C@@H](O)CN2C(=O)[C@H]([C@@H](C)O)NC1=O [CASP]
0.03 µg/mL: MEC (minimum effective concentration) (Aspergillus spp.; A. flavus MMX 7935)
0.25 µg/mL: MIC2 (50% inhibition) (Candida albicans; [2]) | MIC2 (50% inhibition) (Candida krusei; C. krusei ATCC 6258, MICA-I) | MIC2 (50% inhibition) (Candida krusei; [22]) | MIC2 (50% inhibition) (Candida krusei; [23]) | MIC2 (50% inhibition) (Candida krusei; [24]) | MIC2 (50% inhibition) (Candida krusei; C. krusei MMX 7153, MICA-R) | MIC2 (50% inhibition) (Candida krusei; [25]) | MIC2 (50% inhibition) (Candida krusei; [27]) | MIC2 (50% inhibition) (Candida auris; [33]) | MIC2 (50% inhibition) (Candida auris; [34]) | MIC2 (50% inhibition) (Candida auris; [35]) | MEC (minimum effective concentration) (Aspergillus spp.; A. fumigatus ATCC 204305)
0.012 µg/mL: MIC2 (50% inhibition) (Candida krusei; [20])
0.5 µg/mL: MIC2 (50% inhibition) (Candida glabrata; [17])
0.06^a μg/mL: MIC2 (50% inhibition) (Candida albicans; Candida albicans MMX 7445, FLU-R, VORI-R, result after 48 hr incubation (insufficient growth at 24 hr))
0.06 µg/mL: MIC2 (50% inhibition) (Candida albicans; [1]) | MIC2 (50% inhibition) (Candida albicans; [3]) | MIC2 (50% inhibition) (Candida albicans; [4]) | MIC2 (50% inhibition) (Candida albicans; [5]) | MIC2 (50% inhibition) (Candida albicans; [6]) | MIC2 (50% inhibition) (Candida albicans; [8]) | MIC2 (50% inhibition) (Candida albicans; [9]) | MIC2 (50% inhibition) (Candida glabrata; [19]) | MEC (minimum effective concentration) (Aspergillus spp.; A. flavus ATCC 22546) | MEC (minimum effective concentration) (Aspergillus spp.; A. flavus ATCC 204304) | MEC (minimum effective concentration) (Aspergillus spp.; A. fumigatus ATCC MYA-3626)
>8 µg/mL: MIC2 (50% inhibition) (Candida glabrata; [15]) | MIC2 (50% inhibition) (Candida glabrata; [18])
8 µg/mL: MIC2 (50% inhibition) (Candida albicans; [7])
0.25^b μg/mL: MIC2 (50% inhibition) (Candida auris; [29]) | MIC2 (50% inhibition) (Candida auris; [30]) | MIC2 (50% inhibition) (Candida auris; C. auris MMX 9871, Susceptible)
0.06^b μg/mL: MEC (minimum effective concentration) (Aspergillus spp.; A. niger ATCC 29508, 48 hr only, insufficient growth for 24 hr read)
0.12 µg/mL: MIC2 (50% inhibition) (Candida glabrata; [10]) | MIC2 (50% inhibition) (Candida glabrata; [11]) | MIC2 (50% inhibition) (Candida glabrata; [12]) | MIC2 (50% inhibition) (Candida glabrata; [13]) | MIC2 (50% inhibition) (Candida glabrata; [14]) | MIC2 (50% inhibition) (Candida glabrata; [16]) | MIC2 (50% inhibition) (Candida krusei; [21]) | MIC2 (50% inhibition) (Candida krusei; [26]) | MIC2 (50% inhibition) (Candida auris; C. auris MMX 9862, Susceptible) | MIC2 (50% inhibition) (Candida auris; [32]) | MEC (minimum effective concentration) (Aspergillus spp.; A. fumigatus MMX 5934) | MEC (minimum effective concentration) (Aspergillus spp.; A. fumigatus MMX 5939)
0.12^b μg/mL: MIC2 (50% inhibition) (Candida auris; [28]) | MIC2 (50% inhibition) (Candida auris; [31]) | MEC (minimum effective concentration) (Aspergillus spp.; A. fumigatus MMX 5938, 48 hr only, insufficient growth for 24 hr read) | MEC (minimum effective concentration) (Aspergillus spp.; A. terreus MMX 8229, 48 hr only, insufficient growth for 24 hr read)

OC(Cn1cncn1)(Cn1cncn1)c1ccc(F)cc1F [FLU]
2 µg/mL: MIC2 (50% inhibition) (Candida glabrata; [16]) | MIC2 (50% inhibition) (Candida auris; C. auris MMX 9862, Susceptible)
>64 µg/mL: MIC2 (50% inhibition) (Candida auris) | MIC2 (50% inhibition) (Candida auris; C. auris MMX 9871, Susceptible) | MIC2 (Aspergillus spp.; A. flavus ATCC 22546) | MIC2 (Aspergillus spp.; A. flavus ATCC 204304) | MIC2 (Aspergillus spp.; A. flavus MMX 7935) | MIC2 (Aspergillus spp.; A. fumigatus ATCC 204305) | MIC2 (Aspergillus spp.; A. fumigatus ATCC MYA-3626) | MIC2 (Aspergillus spp.; A. fumigatus MMX 5934) | MIC2 (Aspergillus spp.; A. fumigatus MMX 5938) | MIC2 (Aspergillus spp.; A. fumigatus MMX 5939) | MIC2 (Aspergillus spp.; A. niger ATCC 29508) | MIC2 (Aspergillus spp.; A. terreus MMX 8229)
0.12 µg/mL: MIC2 (50% inhibition) (Candida albicans; [4])
32 µg/mL: MIC2 (50% inhibition) (Candida krusei) | MIC2 (50% inhibition) (Candida krusei; [21]) | MIC2 (50% inhibition) (Candida krusei; [22]) | MIC2 (50% inhibition) (Candida krusei; [25]) | MIC2 (50% inhibition) (Candida krusei; [26])
1 µg/mL: MIC2 (50% inhibition) (Candida albicans; [6]) | MIC2 (50% inhibition) (Candida glabrata; [12])
0.5 µg/mL: MIC2 (50% inhibition) (Candida albicans; [8])
8 µg/mL: MIC2 (50% inhibition) (Candida glabrata; [10]) | MIC2 (50% inhibition) (Candida glabrata; [11])
0.25 µg/mL: MIC2 (50% inhibition) (Candida albicans; [1])
16 µg/mL: MIC2 (50% inhibition) (Candida krusei; C. krusei ATCC 6258, MICA-I) | MIC2 (50% inhibition) (Candida krusei; [20]) | MIC2 (50% inhibition) (Candida krusei; [23]) | MIC2 (50% inhibition) (Candida krusei; [24])
64 µg/mL: MIC2 (50% inhibition) (Candida krusei; [27])
4 µg/mL: MIC2 (50% inhibition) (Candida albicans; [9]) | MIC2 (50% inhibition) (Candida glabrata; [19])

C[C@@H](c1ncncc1F)[C@](O)(Cn1cncn1)c1ccc(F)cc1F [VORI]
0.5 µg/mL: MIC2 (50% inhibition) (Candida albicans; [3]) | MIC2 (50% inhibition) (Candida krusei; [21]) | MIC0 (complete inhibition) (Aspergillus spp.; A. flavus MMX 7935) | MIC0 (complete inhibition) (Aspergillus spp.; A. fumigatus ATCC 204305) | MIC0 (complete inhibition) (Aspergillus spp.; A. fumigatus ATCC MYA-3626) | MIC0 (complete inhibition) (Aspergillus spp.; A. niger ATCC 29508)
0.03 µg/mL: MIC2 (50% inhibition) (Candida glabrata; [12]) | MIC2 (50% inhibition) (Candida auris; C. auris MMX 9862, Susceptible)
4 µg/mL: MIC2 (50% inhibition) (Candida glabrata; [18]) | MIC2 (50% inhibition) (Candida auris; [35])
0.12 µg/mL: MIC2 (50% inhibition) (Candida albicans; [9]) | MIC2 (50% inhibition) (Candida glabrata; [10]) | MIC2 (50% inhibition) (Candida glabrata; [11]) | MIC2 (50% inhibition) (Candida glabrata; [15]) | MIC2 (50% inhibition) (Candida krusei; C. krusei ATCC 6258, MICA-I) | MIC2 (50% inhibition) (Candida krusei; [23]) | MIC2 (50% inhibition) (Candida krusei; [24])
1 µg/mL: MIC2 (50% inhibition) (Candida glabrata; [17]) | MIC2 (50% inhibition) (Candida krusei; [27]) | MIC2 (50% inhibition) (Candida auris; C. auris MMX 9871, Susceptible) | MIC0 (complete inhibition) (Aspergillus spp.; A. flavus ATCC 22546)
2 µg/mL: MIC2 (50% inhibition) (Candida glabrata; [13]) | MIC2 (50% inhibition) (Candida glabrata; [14]) | MIC2 (50% inhibition) (Candida auris; [29]) | MIC2 (50% inhibition) (Candida auris; [34]) | MIC0 (complete inhibition) (Aspergillus spp.; A. flavus ATCC 204304) | MIC0 (complete inhibition) (Aspergillus spp.; A. fumigatus MMX 5939)
>8 µg/mL: MIC2 (50% inhibition) (Candida albicans; [5]) | MIC2 (50% inhibition) (Candida albicans; Candida albicans MMX 7445, FLU-R, VORI-R, 24 hr) | MIC2 (50% inhibition) (Candida auris; [28]) | MIC2 (50% inhibition) (Candida auris; [33])
0.25 µg/mL: MIC2 (50% inhibition) (Candida krusei; [22]) | MIC2 (50% inhibition) (Candida krusei; C. krusei MMX 7153, MICA-R) | MIC2 (50% inhibition) (Candida krusei; [25]) | MIC2 (50% inhibition) (Candida krusei; [26]) | MIC0 (complete inhibition) (Aspergillus spp.; A. fumigatus MMX 5934) | MIC0 (complete inhibition) (Aspergillus spp.; A. fumigatus MMX 5938) | MIC0 (complete inhibition) (Aspergillus spp.; A. terreus MMX 8229)
8 µg/mL: MIC2 (50% inhibition) (Candida auris; [30]) | MIC2 (50% inhibition) (Candida auris; [31]) | MIC2 (50% inhibition) (Candida auris; [32])
≤0.008 µg/mL: MIC2 (50% inhibition) (Candida albicans; [1]) | MIC2 (50% inhibition) (Candida albicans; [2]) | MIC2 (50% inhibition) (Candida albicans; [4]) | MIC2 (50% inhibition) (Candida albicans; [6]) | MIC2 (50% inhibition) (Candida albicans; [7]) | MIC2 (50% inhibition) (Candida albicans; [8])
0.06 µg/mL: MIC2 (50% inhibition) (Candida glabrata; [16]) | MIC2 (50% inhibition) (Candida glabrata; [19]) | MIC2 (50% inhibition) (Candida krusei; [20])
